Assay results from publication PMC8220737, “Molecular docking, chemo-informatic properties, alpha-amylase, and lipase inhibition studies of benzodioxol derivatives” (BMC Chemistry, 2021).
≈ marks a conversion by molar mass, not a printed value. Where “and” joins values, the source holds several entries; their conditions need not be identical. Identical values can stand only once.

Experiments:
[1] = biological target: T1, porcine pancreatic lipase (Sus scrofa, UniProt P00591); test: Anti-lipase activity (PNPB hydrolysis); assay type: biochemical; details: for IC50 (µg/ml) Lipase: five dilutions 40, 100, 200, 300, 400 µg/ml, orlistat positive control; for IC50: read-out: IC50 (µg/ml) Lipase (converted)
T1 sequence (P00591 1-450): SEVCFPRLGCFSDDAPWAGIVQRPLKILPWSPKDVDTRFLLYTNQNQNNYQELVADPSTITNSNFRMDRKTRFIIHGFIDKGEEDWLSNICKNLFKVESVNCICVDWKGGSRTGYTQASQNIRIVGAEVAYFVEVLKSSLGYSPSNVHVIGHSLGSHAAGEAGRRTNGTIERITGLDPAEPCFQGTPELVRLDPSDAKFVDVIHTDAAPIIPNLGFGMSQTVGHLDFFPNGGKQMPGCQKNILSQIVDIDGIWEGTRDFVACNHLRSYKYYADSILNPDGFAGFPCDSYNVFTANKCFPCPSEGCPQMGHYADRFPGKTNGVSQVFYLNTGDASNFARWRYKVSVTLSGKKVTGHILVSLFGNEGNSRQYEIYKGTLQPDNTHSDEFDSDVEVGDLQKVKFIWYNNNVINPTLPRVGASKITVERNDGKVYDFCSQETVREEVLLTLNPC
Description: A solution of 1 mg/ml of the synthesized compounds was mixed with 10% dimethyl sulfoxide (DMSO) and then diluted with 10% DMSO to produce five dilutions (40, 100, 200, 300, and 400 µg/ml).
A freshly prepared stock solution of pancreatic lipase enzyme was established by suspending this enzyme in 10% DMSO to form 1 mg/ml. Firstly, 25 mg of lipase was suspended in a small amount of 10% DMSO, bringing the volume up to 25 ml in V.F (25 ml), this was then put in a water bath sonicator at 37 °C for 15 min. […] The pancreatic lipase inhibition assay was conducted by adopting the procedure in the references with slight modifications. From each working solution of the synthesized compounds prepared above, 200 µl of the synthesized compounds were taken and put in a separate test tube, then 100 µl of porcine pancreatic lipase (1 mg/ml) was added to it. The resulting mixture was then adjusted to 1000 µl after addition to the 700 µl of Tris–HCl solution, and then it was incubated in a water bath at 37 °C for 15 min. After the incubation, 100 µl of PNPB (p-nitrophenyl butyrate) solution was added to each test tube. This mixture was then incubated again in a water bath at 37 °C for 30 min. A solution characterized as a negative control was constructed without the synthesized compounds, using 100 µl of porcine pancreatic lipase (1 mg/ml) solution mixed with the Tris–HCl solution up to 1 ml after the addition of 900 µl. […] The % inhibition of the synthesized compounds was calculated by using the following equation: Inhibitory lipase%=Ab-As/Ab∗100

[2] = biological target: T2, porcine pancreatic amylase enzyme (Sus scrofa, UniProt P00690); test: α-Amylase inhibitory activity (DNSA method); assay type: biochemical; details: for IC50 (µg/ml) α-amylase / IC50: five concentrations 1, 10, 50, 100, 500 µg/ml, acarbose positive control; for potency relative to acarbose, α-amylase: folds more potent than acarbose
T2 construct: purchased Frutarom (UK)
T2 sequence (P00690 16-511): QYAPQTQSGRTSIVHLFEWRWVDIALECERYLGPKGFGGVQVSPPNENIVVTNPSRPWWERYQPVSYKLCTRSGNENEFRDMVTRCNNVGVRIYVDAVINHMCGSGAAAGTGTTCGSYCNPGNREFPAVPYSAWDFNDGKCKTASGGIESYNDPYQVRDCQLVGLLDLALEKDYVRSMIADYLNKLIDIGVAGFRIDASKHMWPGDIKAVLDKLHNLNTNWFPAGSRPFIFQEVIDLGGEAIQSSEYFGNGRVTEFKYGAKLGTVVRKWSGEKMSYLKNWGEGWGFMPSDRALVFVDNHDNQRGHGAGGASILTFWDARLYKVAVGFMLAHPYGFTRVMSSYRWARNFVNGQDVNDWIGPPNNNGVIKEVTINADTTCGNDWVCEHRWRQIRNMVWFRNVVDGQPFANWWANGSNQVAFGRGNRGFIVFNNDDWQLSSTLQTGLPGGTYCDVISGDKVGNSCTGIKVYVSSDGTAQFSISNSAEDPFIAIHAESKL
Text: The in vitro antidiabetic activity of the synthesized compounds was investigated by assessing their α-amylase inhibitory effects. Acarbose was used as a positive control.
The following materials were purchased from Frutarom (UK): β-carotene, porcine pancreatic amylase enzyme solution, starch, dinitrosalicylic acid (DNSA), methanol, trolox, gallic acid, Na2CO3, and acarbose.
The α-amylase inhibitory assessment was based on the Wickramaratne et al. protocol with some slight alterations in some steps. The experimental part was carried out by following the 3,5-dinitrosalicylic acid (DNSA) procedure. Solutions of 20 mm sodium phosphate monobasic and sodium phosphate dibasic buffer involving 6.7 mm sodium chloride (NaH2PO4 and Na2HPO4, both including 6.7 mm NaCl, pH 6.9) were constructed by partially filling the beaker with NaH2PO4 and NaCl solution; the mixture was subjected to a magnetic stirrer. In contrast, the pH was adjusted by inserting a calibrated pH electrode in the solution. Then, the Na2HPO4 and NaCl solution was gradually added until the pH reached 6.9. A weight of 5.36 g of 20 mm Na2HPO4. 7H2O and 0.39 g of 6.7 mm NaCl were dispersed in distilled water to make 1 L and a weight of 2.76 g of NaH2PO4. […] Working solutions with concentrations of 1, 10, 50, 100 and 500 µg/ml were obtained by mixing 0.01, 0.1, 0.5, 1, and 5 ml of our synthesized molecules, respectively, and then diluting them with a buffer of Na2HPO4/NaH2PO4 (0.02 M) and NaCl (0.006 M) at pH 6.9 and then brined up to 10 ml using VF (10 ml). The acarbose was considered a reference and was established following the same previous steps used for the synthesized molecules.
A starch solution with a concentration of 1% (w/v) was prepared by suspending 1000 mg of starch in 100 ml of distilled water using V.F (100 ml), and then it was kept in a water bath at 37 °C until use, with occasional mixing to prevent starch precipitation. DNSA was used as a reactive reagent to react with reducing sugars to produce 3-amino-5- nitro salicylic acid that is highly absorbent of light at about 540 nm. It was prepared by dissolving 12 g of sodium potassium tartrate tetrahydrate in 8.0 ml of 2 M NaOH (8 g in 100 ml distill. water) then further dissolved in 20 ml of 96 mm of 3.5-dinitrosalicylic acid solution.
Then, 200 μl of the amylase solution (2 units/ml) was gently shaken with 200 μl of each of the VOs established working solutions, and then this was incubated at 37 °C for 10 min. Then 200 μl of the starch solution was added to each test tube, and there was further incubation for 3 min at 37 °C. The addition of 200 μl DNSA terminated the reaction and then boiling for 10 min at 85 to 90 °C. The mixture was then cooled to room temperature and diluted with 5 ml of distilled water, and the absorbance was recorded at 540 nm using a UV–Visible spectrophotometer. Replacement of the synthesized compounds with 200 μl of buffer was established to obtain the blank sample. In this protocol, acarbose was the positive control sample.

Row | IC50 (µg/ml) Lipase [1] | IC50 (µg/ml) α-amylase [2] | α-amylase inhibitory activity in words [2] | IC50 [1] | IC50 [2] | Compound | potency relative to acarbose, α-amylase [2]
1 | > 400 µg/mL | 9.29 ± 1.4 µg/mL (≈ 24.6 µM) | – | – | – | COC(=O)Cc1cc2c(cc1C(=O)c1cccc(Br)c1)OCO2 [3f] | –
2 | 78.37 ± 1.72 µg/mL (≈ 208 µM) | 2.57 ± 0.90 µg/mL (≈ 6.81 µM) | – | – | – | COC(=O)Cc1cc2c(cc1C(=O)c1ccccc1Br)OCO2 [3e] | –
3 | 187.7 ± 1.23 µg/mL (≈ 458 µM) | 7.95 ± 1.15 µg/mL (≈ 19.4 µM) | – | – | – | O=C(O)Cc1cc2c(cc1C(=O)c1ccccc1I)OCO2 [4d] | –
4 | > 400 µg/mL | 8.88 ± 2.10 µg/mL (≈ 27.9 µM) | – | – | – | O=C(O)Cc1cc2c(cc1C(=O)c1ccccc1Cl)OCO2 [4a] | –
5 | > 400 µg/mL | 1.25 ± 1.01 µg/mL (≈ 3.92 µM) | – | – | – | O=C(O)Cc1cc2c(cc1C(=O)c1cccc(Cl)c1)OCO2 [4b] | five to six folds more potent than acarbose
6 | > 400 µg/mL | 61.45 ± 1.5 µg/mL (≈ 206 µM) | lowest activity | – | – | COC(=O)Cc1cc2c(cc1C(=O)c1ccccc1)OCO2 [3b] | –
7 | 118.86 ± 2.1 µg/mL (≈ 280 µM) | 16.36 ± 0.75 µg/mL (≈ 38.6 µM) | – | – | – | COC(=O)Cc1cc2c(cc1C(=O)c1cccc(I)c1)OCO2 [3d] | –
8 | 225.8 ± 1.43 µg/mL (≈ 622 µM) | 4.90 ± 2.21 µg/mL (≈ 13.5 µM) | – | – | – | O=C(O)Cc1cc2c(cc1C(=O)c1cccc(Br)c1)OCO2 [4 g] | –
9 | 201.2 ± 2.37 µg/mL (≈ 491 µM) | 3.85 ± 0.98 µg/mL (≈ 9.39 µM) | – | – | – | O=C(O)Cc1cc2c(cc1C(=O)c1cccc(I)c1)OCO2 [4e] | –
10 | – | – | – | 800 µM | 3.06 µM | O=C(O)Cc1cc2c(cc1C(=O)c1ccccc1Br)OCO2 [4f] | five to six folds more potent than acarbose
11 | – | – | – | 437 µM | 7.57 µM | COC(=O)Cc1cc2c(cc1C(=O)c1ccccc1Cl)OCO2 [3a] | –
12 | 44.47 ± 2.30 µg/mL (≈ 148 µM) | 8.54 µg/mL and 8.547 ± 1.55 µg/mL | – | – | – | COc1ccc(NC(=O)c2ccc3c(c2)OCO3)cc1OC [6a] | –
13 | 213.82 ± 2.1 µg/mL (≈ 752 µM) | 4.12 ± 1.63 µg/mL (≈ 14.5 µM) | – | – | – | O=C(O)Cc1cc2c(cc1C(=O)c1ccccc1)OCO2 [4c] | –
14 | > 400 µg/mL | 39.85 ± 1.3 µg/mL (≈ 93.9 µM) | – | – | – | COC(=O)Cc1cc2c(cc1C(=O)c1ccccc1I)OCO2 [3c] | –
15 | – | – | – | 335 µM | 14.2 µM | COc1cc(NC(=O)c2ccc3c(c2)OCO3)cc(OC)c1 [6b] | –
